From US11926826B2, “Twist signaling inhibitor compositions and methods of using the same” (City of Hope, priority 2016, dated 2024) come the findings set out here.

For one series, the system named is TWIST. The experiment in a line: TWIST knockdown after Lipofectamine 2000 transfection in A2780R (western blot). The series is classed as cell-based. The following applies: over three days post transfection. On the procedure: Cell Culture. A2780R and all derivatives of Ovcar8 were grown in RPMI 1640 (Genesee Scientific, San Diego, CA) in a tissue culture incubator at 37° C., 5% CO2, and 90% humidity. Growth medium was supplemented with 10% fetal bovine serum and 1% penicillin/streptomycin. Cells were passaged every 2-4 days using 0.25% trypsin (Genesee Scientific). Where indicated, cells were transfected with Lipofectamine 2000 (Thermo Fisher, Waltham, MA) according to the manufacturer's instructions. A2780R cells are a cisplatin resistant derivative of A2780.
Western Blotting. Following siRNA treatment, cells were pelleted and lysed in RIPA buffer. Protein concentration was determined by BCA assay (Thermo Fisher). Following SDS-PAGE, protein was transferred to Amersham PVDF membrane (Genesee Scientific) using a BioRad Trans-Blot SD semi-dry transfer unit. Blots were then blocked in milk for one hour at room temperature or overnight at 4° C. Incubation with primary antibody took place for one hour at room temperature or overnight at 4° C. Antibodies were diluted in 5% milk, with 0.1-0.2% Tween-20. Antibodies used were TWIST 2c1a (Santa Cruz Biotechnology, Dallas, TX) at 1:250-1:500 dilution, β-Actin, A1978 (Sigma Aldrich, St. Louis, MO) at 1:2500-1:5000 dilution; and Horseradish Peroxidase (HRP) conjugated anti-mouse secondary antibodies. […]

For the next series, the system named is SUM 1315 cells. Nature of the series: Wound healing assay, SUM 1315. The note with it: YTZ3-15 transfection; compared to siQ. It counts as cell-based, human. As to the method:
Wound Healing Assay. To examine direction cell migration in vitro wound healing assays were performed as described previously. In summary, SUM 1315 cells (parental, eGFP+luc, shScram, shTwistA, and shTwistB) were grown in the conditions described above (2.1) in 6-well tissue culture plates. Once cells reached 80% confluency, a sterile 200 μl pipette tip was used to scratch a line in the monolayer of cells. Images were taken immediately after the scratch and at several time points thereafter using a Nikon TE-2000S microscope and SPOT Advanced software (Diagnostic Instruments, Sterling Heights, MI). Care was taken to always capture images in the same location for each time point. Additionally, SUM 1315 cells were transfected with siQ, siTwistA, or siTwistB using YTZ3-15 at a 50 nM final concentration. Cells were incubated with YTZ3-15+siRNA for 24 hours at 37° C., 5% CO2, and 90% humidity in a tissue culture incubator; the plates were then scratched with the 200 μl pipette tip.

The next series relates to N-Cadherin mRNA. The experiment in a line: qPCR after YTZ3-15 delivery of siTwist in SUM 1315: N-Cadherin. The note with it: delivered via YTZ3-15; after seven days. It counts as cell-based, human. As to the method: Cell Culture, Transfection, and Stable Cell Line Production. SUM 1315 breast cancer cells were obtained from ATCC (Manassas, VA). Cells were maintained at 37° C., 5% CO2, and 90% humidity in a tissue culture incubator. Media for SUM 1315 cells consisted of a 50-50 mixture of DMEM and F12 media, supplemented with 5 μg/ml insulin, 10 ng/ml EGF, 5% fetal bovine serum, and 1% penicillin/streptomycin. Cells were passaged using 0.25% trypsin (Genesee Scientific, San Diego, CA) every 2-3 days as they reached confluency. […]
Quantitative PCR. […] RNA quantity and quality was measured and analyzed (with 260/280 nm and 260/230 nm spectra measurements) using a NanoDrop ND-1000 (Thermo Fisher Scientific, Waltham, MA). […] Quantitative RT-PCR was performed in quadruplicate using Maxima SYBR Green Master Mix (Thermo Fisher Scientific, Waltham, MA) in 25 μl reactions. […] Data were analyzed using Bio-Rad iQ5 software using the 2^−ΔΔ^Ct method and normalized to Actin. […]

For “si419: anti-TWIST siRNA; passenger 5′-GGACAAGCUGAGCAAGAUU-3′ (SEQ ID No: 1), guide 5′-AAUCUUGCUCAGCUUGUCCUU-3′ (SEQ ID No: 2) (listed as RNA, chemistry not fully specified)”, in the series with TWIST, the TWIST expression entry is listed as “completely inhibit TWIST expression”. Further, the directional migration result in the series with SUM 1315 cells was “decreased directional migration”. The “N-Cadherin mRNA decrease” value in the series with N-Cadherin mRNA is recorded as “approximately 90%”.
